We go through 3 molecules from patent publication US20130084287A1, “DIAGNOSTIC MARKERS” (GENENTECH, INC., priority 2011, published 2013).

Holding throughout (assay type): cell-based
Test [1] relates to NSCLC cell lines. The test can be described thus: erlotinib IC50 determination, Celltiter-Glo Luminescent Cell Viability Assay. As to conditions: for IC50: read-out: erlotinib sensitivity (IC50 class). The procedure:
For erlotinib IC50 determination, cells were plated in quadruplicate at 3×10^2 cells per well in 384-well plates in RPMI containing 0.5% FBS (assay medium) and incubated overnight. 24 hours later, cells were treated with assay medium containing 3 nM TGFα and erlotinib at a dose range of 10 μM-1 pM final concentration. After 72 hrs, cell viability was measured using the Celltiter-Glo Luminescent Cell Viability Assay (Promega). The concentration of erlotinib resulting in 50% inhibition of cell viability was calculated from a 4-parameter curve analysis and was determined from a minimum of two experiments.

Test [2] concerns NSCLC cell lines. Briefly: TGFβ1 induction of EMT, 20-gene EMT expression panel and morphology. As to conditions: 2 cell lines, 2 ng/mL TGFβ1. The method, then: (§1) Cells were grown in RPMI 1640 supplemented with 10% fetal bovine serum and 2 mM L-Glutamine Cells were seeded on day 0 at 4000-9000 cells/cm2 and dosed with 1 μM 5-aza-2′-deoxycytidine (5-aza-dC) (SIGMA-ALDRICH Cat No. A3656) or DMSO control (Cat No. D2650) on days 1, 3, and 5. On day 6 cells were washed once in cold PBS and harvested by scraping in Trizol (Invitrogen, Cat No 15596018) and extracted for RNA or flash frozen for later RNA extraction. For induction of EMT, cells were plated at 20000-50000 cells/10 cm2 in complete medium and supplemented with 2 ng/mL human transforming growth factor beta 1 (TGFβ1) (R&D Systems, Cat No 100-B/CF) or PBS control. Media and TGFβ1 were replaced every 3 days, and RNA was extracted at 4-5 weeks following TGFβ1 induction of EMT. Gene expression changes were assessed using Taqman assays for the 20-gene EMT panel (FIG. 1).
2 μl of total RNA was reverse-transcribed to cDNA and pre-amplified in a single reaction using Superscript III/Platinum Taq (Invitrogen) and Pre-amplification reaction mix (Invitrogen). 20 Taqman primer/probe sets selected for the EMT expression panel (FIG. 1) were included in the pre-amplification reaction at a final dilution of 0.05× original Taqman assay concentration (Applied Biosystems). […]
Pre-amplified cDNA was diluted 1.94-fold and then amplified using Taqman Universal PCR MasterMix (Applied Biosystems) on the BioMark BMK-M-96.96 platform (Fluidigm) according to the manufacturer's instructions. […] Two custom-designed reference genes that were previously evaluated for their expression stability across multiple cell lines, fresh-frozen tissue samples, and FFPE tissue samples, AL-1377271 and VPS-33B, were included in the expression panel. A mean of the Ct values for the two reference genes was calculated for each sample, and expression levels of EMT target genes were determined using the delta Ct (dCt) method as follows: Mean Ct (Target Gene)−Mean Ct (Reference Genes). […]

The subject of test [3] is NSCLC cell lines. Briefly: quantitative PCR of gene expression in 5-aza-dC-treated vs DMSO-treated NSCLC cell lines. The method, then:
as §1
To evaluate the role of methylation in regulating expression of the genes associated with select DMRs, quantitative PCR was carried out in a panel of 34 5-aza-2′-deoxycytidine (5-aza-dC) and dimethyl sulfoxide-treated NSCLC cell lines. […] From this group of genes, CLDN7 was selected as a representative marker of EMT and its methylation status was quantified by pyrosequencing in an extended panel of 42 cell lines.
In FIG. 5A, quantitative methylation was determined at 7 CpG sites by PyroMark analysis software using the equation: % methylation=(C peak height×100/C peak height+T peak height). Data are represented as the mean±SD percentage of methylation at 7 CpG sites. In FIG. 5B, relative expression of CLDN7 mRNA was determined using a standard ΔCt method in 42 (n=20 epithelial-like, 19 mesenchymal-like, 3 intermediate) DMSO-treated and 5-aza-dC-treated NSCLC cell lines. Expression values were calculated as a fold change in 5-aza-dC-treated relative to DMSO-treated control cells. Data are normalized to the housekeeping gene GAPDH and represented as the mean of 2 replicates. DMSO, dimethyl sulfoxide; GAPDH, glyceraldehyde-3-phosphate dehydrogenase.

Read-outs that look alike come from different tables or passages of the source. Some results are limits rather than exact numbers.

In the case of `C#Cc1cccc(Nc2ncnc3cc(OCCOC)c(OCCOC)cc23)c1` [erlotinib, [6,7-bis(2-methoxyethoxy)-4-quinazolin-4-yl]-(3-ethynylphenyl) amine], the IC50 was at most 2 µM in the test with NSCLC cell lines [1] (6 EGFR-mutant NSCLC cell lines); at most 2 µM with NSCLC cell lines [1] (72 h, RERF-LC-MS cell line, 72 hrs, 3 nM TGFα); at most 2 µM with NSCLC cell lines [1] (Homo sapiens, NCI-H838, 72 h, H838 cell line, 72 hrs, 3 nM TGFα); at most 2 µM in the test with NSCLC cell lines [1] (Homo sapiens, NCI-H2030, 72 h, H2030 cell line, 72 hrs, 3 nM TGFα); at most 2 µM with NSCLC cell lines [1] (Homo sapiens, SK-MES-1, 72 h, SK-MES-1 cell line, 72 hrs, 3 nM TGFα); at least 8 µM in the test with NSCLC cell lines [1] (nearly all mesenchymal-like lines). Moreover, the erlotinib sensitivity result was “resistance” with NSCLC cell lines [1] (H1993, MET amplification) and “resistance” in the test with NSCLC cell lines [1] (epithelial-like line H1975, T790M mutation in EGFR).

“TGFβ1: human transforming growth factor beta 1 (R&D Systems), used for induction of EMT”: the morphologic changes entry in the test with NSCLC cell lines [2] is recorded as “induced morphologic changes associated with an EMT”. Further, in the test on NSCLC cell lines [2] (20-gene EMT panel), the “expression of genes associated with a mesenchymal phenotype” value is reported as “upregulated” and the “expression of genes associated with an epithelial phenotype” value is listed as “downregulated”.

Take `Nc1ncn([C@H]2C[C@H](O)[C@@H](CO)O2)c(=O)n1` [5-aza-dC, 5-aza-2′-deoxycytidine]: the “induction of CLDN7 expression” value in the test on NSCLC cell lines [3] (majority of the epithelial-like cell lines, 1 μM 5-aza-dC) was “not induced further”. In addition, the “induction of GRHL2, ESRP1, and CLDN7 transcripts” value with NSCLC cell lines [3] (mesenchymal-like versus epithelial-like lines, panel of 34 NSCLC cell lines) is “significant induction”. Moreover, the “induction of CLDN7 expression, fold change in 5-aza-dC-treated relative to DMSO-treated control cells” value in the test with NSCLC cell lines [3] (nearly all mesenchymal-like lines, 1 μM 5-aza-dC, normalized to GAPDH) is given as above 10 fold.
